Results published in US20130178413A1, “HCV NS3 PROTEASE INHIBITORS” (priority 2010, published 2013).
Read-outs that look alike come from different tables or passages of the source.

Legend:
[1] = system: gt 1b Replicon; test: HCV replicon assay, compound inhibitory potency (Replicon EC50); type: cell-based; conditions: Hepatitis C virus, GT1B
How it was run: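 Stable replicon-harboring cells (neomycin phosphotransferase, some luciferase:Neor fusion) plated with compound dilution series without G418, incubated 24-48 h. Read-out: RNA by 32P-probe protection or TaqMan normalized to cyclophilin A RNA, or luciferase activity; EC50 as percent of DMSO control, four-parameter fit.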

[2] = target: NS3/4A protease gt 1b (Hepatitis C virus genotype 1b, UniProt P26663); test: HCV NS3 protease time-resolved fluorescence (TRF) assay, NS3/4A inhibitory activity (Ki), gt 1b; type: biochemical; conditions: genotype 1b NS3/4A; read-out: Enzyme Activity gt 1b Ki
How it was run: (§1)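 NS3/4A protease (gt 1b, 1b A156V, 3a) pre-incubated 30 min with inhibitor in 50 mM HEPES pH 7.5, 150 mM NaCl, 15% glycerol, 0.15% Triton X-100, 10 mM DTT, 0.1% PEG 8000; 100 nM TRF peptide substrate, 1 h at room temperature, quenched with MES pH 5.5. Time-resolved fluorescence (ex 340/em 615 nm); four-parameter IC50 converted to Ki via IC50=Ki(1+[S]/KM).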

[3] = target: NS3/4A protease gt 1b A156V (Hepatitis C virus genotype 1b, UniProt P26663, A1182V); test: HCV NS3 protease time-resolved fluorescence (TRF) assay, NS3/4A inhibitory activity (Ki), gt 1b A156V mutant; type: biochemical, hepatitis C virus (HCV)
How it was run: as §1

[4] = target: NS3/4A protease gt 3a (Hepatitis C virus genotype 3a, UniProt Q81258); test: HCV NS3 protease time-resolved fluorescence (TRF) assay, NS3/4A inhibitory activity (Ki), gt 3a; type: biochemical; conditions: genotype 3a NS3/4A; read-out: Enzyme Activity gt 3a Ki
How it was run: as §1

[5] = 10% Fetal Bovine Serum, read-out: gt 1b Replicon EC50 10% FBS
[6] = 50% Normal Human Serum, read-out: gt 1b Replicon EC50 50% NHS

Structure (SMILES) | EC50 [1, 5] | EC50 [1, 6] | Ki [2] | Ki [3] | Ki [4]
C=C[C@@H]1C[C@]1(NC(=O)[C@@H]1C[C@@H]2CN1C(=O)[C@H](C1CCCC1)NC(=O)O[C@]1(C)C[C@H]1CC/C=C/Cc1c(nc3ccccc3c1O)O2)C(=O)NS(=O)(=O)C1CC1 [Example I-4, (1R,14E,18R,20R,24S,27S)-24-Cyclopentyl-N-((1R,2S)-1-{[(cyclopropylsulfonyl)amino]carbonyl}-2-vinylcyclopropyl)-11-hydroxy-20-methyl-22,25-dioxo-2,21-dioxa-4,23,26-triazapentacyclo[24.2.1.0^3,12.0^5,10.0^18,20]nonacosa-3,5,7,9,11,14-hexaene-27-carboxamide] | 7 nM | 17 nM | 0.04 nM | 0.9 nM | 0.7 nM
C=C[C@@H]1C[C@]1(NC(=O)[C@@H]1C[C@@H]2CN1C(=O)[C@H](C(C)(C)C)NC(=O)O[C@]1(C)C[C@H]1CCC/C=C/c1cccc3c1CN(C3)C(=O)O2)C(=O)NS(=O)(=O)C1(C)CC1 [Example I-32, (1aR,5S,8S,10R,19E,23aR)-5-tert-butyl-N-[(1R,2S)-2-ethenyl-1-{[(1-methylcyclopropyl)sulfonyl]carbamoyl}cyclopropyl]-1a-methyl-3,6,12-trioxo-1a,3,4,5,6,9, 10,14,21,22,23,23a-dodecahydro-1H,8H-7,10:13,15-dimethanocyclopropa [n][4,13,2,8,11]benzo dioxatriazacyclo docosine-8(12H)-carboxamide] | 1 nM | 11 nM | 0.03 nM | 1 nM | 1.8 nM
C=C[C@@H]1C[C@]1(NC(=O)[C@@H]1C[C@@H]2CN1C(=O)[C@H](C1CCCC1)NC(=O)O[C@]1(C)C[C@H]1CCC/C=C/c1cccc3c1CN(C3)C(=O)O2)C(=O)NS(=O)(=O)C1CC1 [Example I-12, (1aR,5S,8S,10R,19E,23aR)-5-cyclopentyl-N-{(1R,2S)-1-[(cyclopropylsulfonyl)carbamoyl]-2-ethenylcyclopropyl}-1a-methyl-3,6,12-trioxo-1a,3,4,5,6,9,10, 14,21,22,23,23a-dodecahydro-1H,8H-7,10:13,15-dimethano cyclopropa[n][4,13,2,8, 11]benzodioxatriaza cyclodocosine-8(12H)-carboxamide] | 5 nM | 19 nM | 0.02 nM | 1.4 nM | 12 nM
C=C[C@@H]1C[C@]1(NC(=O)[C@@H]1C[C@@H]2CN1C(=O)[C@H](C1CCCC1)NC(=O)O[C@]1(C)C[C@H]1CC/C=C/Cn1c(nc3cc(Cl)ccc3c1=O)O2)C(=O)NS(=O)(=O)C1CC1 [Example I-26, (1aR,5S,8S,10R,20E,23aR)-14-chloro-5-cyclopentyl-N-{(1R,2S)-1-[(cyclopropylsulfonyl)carbamoyl]-2-ethenylcyclopropyl}-1a-methyl-3,6,17-trioxo-1,1a,3,4,5,6,9, 10,19,22,23,23a-dodecahydro-8H,17H-7,10-methano cyclopropa[18,19][1,10,3,6,12]dioxatriaza cyclononadecino[11,12-b]quinazoline-8-carboxamide] | 3 nM | 13 nM | 0.02 nM | 1.6 nM | 0.8 nM
C=C[C@@H]1C[C@]1(NC(=O)[C@@H]1C[C@@H]2CN1C(=O)[C@H](C(C)(C)C)NC(=O)O[C@]1(C)C[C@H]1CCCCCc1nc3ccc(OC)cc3cc1O2)C(=O)NS(=O)(=O)C1CC1 [Example I-10, (1aR,5S,8S,10R,22aR)-5-tert-butyl-N-{(1R,2S)-1-[(cyclopropylsulfonyl)carbamoyl]-2-ethenylcyclopropyl}-14-methoxy-1a-methyl-3,6-dioxo-1,1a,3,4,5,6,9,10,18,19,20,21,22, 22a-tetradecahydro-8H-7,10-methanocyclo propa[18,19][1,10,3,6] dioxadiazacyclonona decino[12,11-b] quinoline-8-carboxamide] | 4 nM | 10 nM | 0.02 nM | 4.2 nM | 0.2 nM
C=C[C@@H]1C[C@]1(NC(=O)[C@@H]1C[C@@H]2CN1C(=O)[C@H](C1CCCC1)NC(=O)O[C@]1(C)C[C@H]1CC/C=C/Cn1c(nc3cc(C)ccc3c1=O)O2)C(=O)NS(=O)(=O)C1CC1 [Example I-23, (1aR,5S,8S,10R,20E,23aR)-5-cyclopentyl-N-{(1R,2S)-1-[(cyclopropylsulfonyl)carbamoyl]-2-ethenylcyclopropyl}-1a,14-dimethyl-3,6,17-trioxo-1,1a,3,4,5,6,9,10,19,22,23,23a-dodecahydro-8H,17H-7,10-methano cyclopropa[18,19][1, 10,3,6,12]dioxatriaza cyclononadecino[11,12-b]quinazoline-8-carboxamide] | 2 nM | 6 nM | 0.02 nM | 1.2 nM | 1 nM
C=C[C@@H]1C[C@]1(NC(=O)[C@@H]1C[C@@H]2CN1C(=O)[C@H](C1CCCC1)NC(=O)O[C@]1(C)C[C@H]1CCCCCc1nc3cccc(OC)c3nc1O2)C(=O)NS(=O)(=O)C1(C)CC1 [Example I-1, (1R,18R,20R,24S,27S)-24-Cyclopentyl-6-methoxy-20-methyl-N-[(1R,2S)-1-({[(1-methylcyclopropyl)sulfonyl]amino}carbonyl)-2-vinylcyclopropyl]-22,25-dioxo-2,21-dioxa-4,11,23,26-tetraazapentacyclo[24.2.1.0^3,12.0^5,10.0^18,20]nonacosa-3,5,7,9,11-pentaene-27-carboxamide] | 2 nM | 7.6 nM | 0.04 nM | 1 nM | 1.6 nM
C=C[C@@H]1C[C@]1(NC(=O)[C@@H]1C[C@@H]2CN1C(=O)[C@H](C1CCCC1)NC(=O)O[C@]1(C)C[C@H]1CCCCCn1c(nc3cc(C)ccc3c1=O)O2)C(=O)NS(=O)(=O)C1CC1 [Example I-27, (1aR,5S,8S,10R,23aR)-5-cyclopentyl-N-{(1R,2S)-1-[(cyclopropylsulfonyl)carbamoyl]-2-ethenylcyclopropyl}-1a,14-dimethyl-3,6,17-trioxo-1,1a,3,4,5,6,9, 10,19,22,21,22,23,23a-tetradecahydro-8H,17H-7,10-methanocyclopropa[18, 19][1,10,3,6,12]dioxatri azacyclononadecino [11,12-b]quinazoline-8-carboxamide] | 2 nM | 6 nM | 0.04 nM | 4.1 nM | 2.8 nM
